Data taken from PMC6002953 (ACS chemical neuroscience, 2017).
Values joined by “and” are separate entries in the source; they are usually repeats but may differ in a detail not shown here. Identical values can stand only once.

How the values were obtained:
MDCK-MDR1 monolayers = assay: BBB permeability, bidirectional transport through MDCK-MDR1 monolayers; conditions: 10 μM test article, single determination
P-glycoprotein (MDR1) = assay: as above; conditions: dog, MDCK-MDR1, pH 7.4
human OX1 receptor = molecular target: T1, human OX1 receptor (Homo sapiens, UniProt O43613); assay: Calcium mobilization Ke assay, OX1; format: cell-based
T1 sequence (O43613 1-425): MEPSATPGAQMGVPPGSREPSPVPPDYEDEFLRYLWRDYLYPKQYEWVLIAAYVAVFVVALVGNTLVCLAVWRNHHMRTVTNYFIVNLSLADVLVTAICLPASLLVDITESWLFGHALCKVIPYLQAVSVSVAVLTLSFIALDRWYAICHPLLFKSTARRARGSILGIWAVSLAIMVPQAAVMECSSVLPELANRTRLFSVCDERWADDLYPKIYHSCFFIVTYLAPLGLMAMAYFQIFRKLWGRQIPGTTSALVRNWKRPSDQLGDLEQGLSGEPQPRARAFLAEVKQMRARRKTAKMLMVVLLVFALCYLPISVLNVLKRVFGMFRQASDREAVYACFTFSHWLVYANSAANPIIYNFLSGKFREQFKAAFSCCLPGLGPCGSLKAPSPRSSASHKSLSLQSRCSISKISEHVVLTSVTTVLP

[1] = Kinetic solubility in PBS pH 7.4; format: physicochemical; conditions: pH 7.4, aqueous buffer, kinetic from dmso stock
human OX2 receptor = molecular target: T2, human OX2 receptor (Homo sapiens, UniProt O43614); assay: Calcium mobilization Ke assay, OX2; format: cell-based
T2 sequence (O43614 1-444): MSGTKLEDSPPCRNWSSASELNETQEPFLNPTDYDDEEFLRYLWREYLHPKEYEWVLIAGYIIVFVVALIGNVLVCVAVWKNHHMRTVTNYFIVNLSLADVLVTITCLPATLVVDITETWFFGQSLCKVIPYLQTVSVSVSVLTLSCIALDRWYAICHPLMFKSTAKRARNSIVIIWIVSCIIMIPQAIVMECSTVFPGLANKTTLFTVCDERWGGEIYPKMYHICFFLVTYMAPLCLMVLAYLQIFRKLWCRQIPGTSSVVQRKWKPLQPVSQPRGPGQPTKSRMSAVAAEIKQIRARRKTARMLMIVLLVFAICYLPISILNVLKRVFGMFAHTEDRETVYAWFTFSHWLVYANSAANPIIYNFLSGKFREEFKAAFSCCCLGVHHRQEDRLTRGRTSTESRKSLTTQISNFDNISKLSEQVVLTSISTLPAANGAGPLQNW

SMILES | Papp A-to-B (MDCK-MDR1 monolayers; MDCK-MDR1, apical-to-basolateral) | Papp B-to-A (MDCK-MDR1 monolayers; MDCK-MDR1, basolateral-to-apical) | Papp A→B at 90 min, 10 μM (P-glycoprotein (MDR1)) [×10⁻⁶ cm/s] | Papp B→A at 90 min, 10 μM (P-glycoprotein (MDR1)) [×10⁻⁶ cm/s] | efflux ratio at 90 min, 10 μM (P-glycoprotein (MDR1)) | Kd (human OX1 receptor) [nM] | selectivity over OX2 (human OX1 receptor; OX1 over OX2, calcium mobilization assays) | OX2/OX1 (human OX1 receptor; ratio of Ke values OX2/OX1) | solubility kinetic at 2 h [1] [µM] | Kd (human OX2 receptor) [nM]
COc1ccc(CC2c3cc(OCC(F)(F)F)c(OC)cc3CCN2CC(=O)NCc2cccnc2)cc1OC (stereo not shown) [Compound 5, reference compound] | 12.2 10^−6 cm/sec | 36.2 10^−6 cm/sec |  |  |  |  |  |  |  | 
COc1ccc(CC2c3cc(N(C)C)c(OC)cc3CCN2CC(=O)NCc2cccnc2)cc1N(C)C (stereo not shown) [Compound 44, 2-[7-(Dimethylamino)-1-{[3-(dimethylamino)-4-methoxyphenyl]methyl}-6-methoxy-1,2,3,4-tetrahydroisoquinolin-2-yl]-N-(pyridin-3-ylmethyl)acetamide] |  |  | 14.7 | 47.8 | 3.3 | 5.7 ± 1 | > 1,760 fold and > 1,000 fold | >1,760 | > 200 | > 10000
